Where two headings read alike, the source gives them in different places.
Key:
[1] = test system: GM16548 Rett syndrome human cell line; test: Functional Mitochondrial Toxicity Assay (GM16548); format: cell-based
Protocol: (§1) The present Examples interrogate the two major energy producing pathways in the cell, mitochondrial respiration and glycolysis. HepG2 human liver cancer cell lines were dosed with test compounds and in real time the extracellular oxygen levels and pH were measured using the XFe96 flux analyser (Seahorse Biosciences). XFe Technology uses solid-state sensors to simultaneously measure both oxygen consumption rate (OCR) and extracellular acidification rate (ECAR) to determine effects on oxidative phosphorylation (OXPHOS) and glycolysis simultaneously. The cells were then subjected to sequential exposure to various inhibitors of mitochondrial functional to assess cellular metabolism.
(§2) A positive mitochondrial active compound is determined when there is a change in OCR or ECAR in the absence of cytotoxicity. Cytotoxicity was determined when both oxidative phosphorylation (OCR) and glycolysis (ECAR) were inhibited.
(§3) OCR is a measurement of oxygen content in extracellular media. Changes in OCR indicate effects on mitochondrial function, and can be bi-directional. A decrease is due to an inhibition of mitochondrial respiration, whilst an increase may indicate an uncoupler, in which respiration is not linked to energy production.
(§4) ECAR is the measurement of extracellular proton concentration (pH). An increase in signal means an increase in rate in number of pH ions (Thus decreasing pH value), and seen as an increase in glycolysis. Expressed as a fraction of basal control (rate prior to addition of compound).
(§5) Reverse capacity is the measured ability of cells to respond to an increase in energy demand, a reduction indicates mitochondrial dysfunction.
(§6) The Mitochondrial Stress Test is a series of sequential additions of compounds to the cells to assess a bioenergetics profile, and effects of test compounds on parameters such as proton leak and research capacity. This was used to assist in understanding potential mechanisms of mitochondrial toxicity. For example, it involves the addition of the follow compounds in this order:
The present Example interrogates the two major energy producing pathways in the cell, mitochondrial respiration and glycolysis. A GM16548 Rett syndrome human cell line was dosed with test compound I-39 using the general protocol outlined in Example 2 above.

[2] = test system: GM01299 propionic acidemia human cell line; test: Functional Mitochondrial Toxicity Assay (GM01299); format: cell-based
Protocol: as §1, §2, §3, §4, §5, §6
The present Example interrogates the two major energy producing pathways in the cell, mitochondrial respiration and glycolysis. A GM01299 propionic acidemia human cell line was dosed with test compound I-17 using the general protocol outlined in Example 2 above.

[3] = test system: GM01061 Huntington Disease human cell line; test: Functional Mitochondrial Toxicity Assay (GM01061); format: cell-based
Protocol: as §1, §2, §3, §4, §5, §6
The present Example interrogates the two major energy producing pathways in the cell, mitochondrial respiration and glycolysis. A GM01061 Huntington Disease human cell line was dosed with test compound I-39 using the general protocol outlined in Example 2 above.

[4] = test system: GM05162 Duchenne muscular dystrophy human cell line; test: Functional Mitochondrial Toxicity Assay (GM05162); format: cell-based
Protocol: as §1, §2, §3, §4, §5, §6
The present Example interrogates the two major energy producing pathways in the cell, mitochondrial respiration and glycolysis. A GM05162 Duchenne muscular dystrophy human cell line was dosed with test compound I-17 using the general protocol outlined in Example 2 above.

[5] = test system: HepG2 human liver cancer cell line; test: Functional Mitochondrial Toxicity Assay, XFe96 Seahorse (HepG2); format: cell-based; settings: HepG2
Protocol: as §1, §2, §3, §4, §5, §6
Oligomycin is a known inhibitor of ATP synthase, and prevents the formation of ATP. This provides a measurement of the amount of oxygen consumption related to ATP production and ATP turnover. The addition of Oligomycin results in a decrease in OCR under normal conditions, and residual OCR is related to the natural proton leak.
Carbonyl cyanide 4-(trifluoromethoxy)phenylhydrazine (FCCP) is a protonphore, and is a known uncoupler of oxygen consumption from ATP production. This allows the maximum achievable transfer of electrons and oxygen consumption rate, and provides a measurement of reserve capacity.
Rotenone and antimycin A are known inhibitors of complex I and III of the electron transport chain, respectively. This inhibits electron transport completely, and any residual oxygen consumption is due to non-mitochondrial activity via oxygen requiring enzymes.

[6] = Szeto et al. 2013; cited from earlier work
[7] = test system: mitochondria; settings: US 2004/0248808, U.S. Pat. No. 7,718,620; cited from earlier work
[8] = test system: glaucomatous human trabecular meshwork (GTM3) cells; settings: Chen et al. 2011; cited from earlier work
[9] = test system: immortalized human trabecular meshwork (iHTM) cells; settings: Chen et al. 2011; cited from earlier work
[10] = test system: mitochondria; settings: cited from earlier work
[11] = read-out: Reserve Capacity AC50

Compound	Potential Mechanism [1]	Reserve Capacity MEC [1] [µM]	Reserve Capacity ↑↓ [1]	AC50 ([1]; read-out: ECAR AC50) [µM]	AC50 [1, 11] [µM]	Potential Mechanism [3]	AC50 ([3]; read-out: ECAR AC50) [µM]	AC50 [3, 11] [µM]	Potential Mechanism [5]	Reserve Capacity MEC [5] [µM]	Reserve Capacity ↑↓ [5]	AC50 ([5]; read-out: ECAR AC50) [µM]	AC50 ([5]; read-out: OCR AC50) [µM]	AC50 [5, 11] [µM]	further results
O=C(O)CCC(=O)O [Succinate]	Other	72.3	↑	> 100	> 100	No effect	> 100	> 100	Uncoupler	62.5	↑	> 100	> 100	> 100	AC50 ([1]; read-out: OCR AC50): > 100 µM; Potential Mechanism [2]: Other; Reserve Capacity MEC [2]: 38.2 µM; Reserve Capacity ↑↓ [2]: ↑; AC50 ([2]; read-out: ECAR AC50): > 100 µM; AC50 ([2]; read-out: OCR AC50): > 100 µM; AC50 [2, 11]: > 100 µM; ECAR MEC [4]: 0.179 µM; ECAR ↑↓ [4]: ↑; Potential Mechanism [4]: Other; AC50 ([4]; read-out: ECAR AC50): 2.91 µM; AC50 [4, 11]: > 100 µM; OCR MEC [5]: 74.8 µM; OCR ↑↓ [5]: ↑
CC(O)CC(=O)O (stereo not drawn) [β-OHB]	Other	23.1	↑	> 100	72.2	Other	> 100	> 100	Other	53.0	↑	> 100	> 100	> 100	ECAR MEC [2]: 89.8 µM; ECAR ↑↓ [2]: ↓; Potential Mechanism [2]: Other; Reserve Capacity MEC [2]: 25.3 µM; Reserve Capacity ↑↓ [2]: ↑; AC50 ([2]; read-out: ECAR AC50): > 100 µM; AC50 ([2]; read-out: OCR AC50): > 100 µM; AC50 [2, 11]: > 100 µM; Reserve Capacity MEC [3]: 81.1 µM; Reserve Capacity ↑↓ [3]: ↑; AC50 ([3]; read-out: OCR AC50): > 100 µM; Potential Mechanism [4]: Other; Reserve Capacity MEC [4]: 1.15 µM; Reserve Capacity ↑↓ [4]: ↑; AC50 ([4]; read-out: ECAR AC50): > 100 µM; AC50 [4, 11]: 69.5 µM
(D-Phe)(D-Orn)(D-Tyr)(D-Orn)-NH2 [Peptide I-39]	Other	60.2	↑	> 100	> 100	No effect	> 100	> 100	Other		↑	> 100	> 100	> 100	AC50 ([1]; read-out: OCR AC50): > 100 µM; ECAR ↑↓ [5]: ↓; ECAR MEC ([5]; listed as I-39(1)): 30.1 µM; Reserve Capacity MEC ([5]; listed as I-39(1)): 92.4 µM; ECAR MEC ([5]; listed as I-39(2)): 15.3 µM; Reserve Capacity MEC ([5]; listed as I-39(2)): 67.6 µM; ECAR MEC ([5]; listed as I-39(3)): 21.2 µM; Reserve Capacity MEC ([5]; listed as I-39(3)): 77.3 µM
(D-Arg)(L-Dmt)(L-Lys)(L-Phe)-NH2 [Peptide I-1, reference compound]											↑		> 100		binding to cardiolipin within the inner mitochondria membrane [6]: binding to cardiolipin; ECAR ↑↓ [5]: ↓; Potential Mechanism ([5]; listed as I-1 (1)): No effect; AC50 ([5]; listed as I-1 (1), read-out: ECAR AC50): > 100 µM; AC50 ([5]; listed as I-1 (1), read-out: Reserve Capacity AC50): > 100 µM; ECAR MEC ([5]; listed as I-1 (2)): 14.3 µM; Potential Mechanism ([5]; listed as I-1 (2)): Other; Reserve Capacity MEC ([5]; listed as I-1 (2)): 90.3 µM; AC50 ([5]; listed as I-1 (2), read-out: ECAR AC50): > 100 µM; AC50 ([5]; listed as I-1 (2), read-out: Reserve Capacity AC50): > 100 µM; number of mitochondria undergoing MPT [7]: significantly reduce; sustained oxidative stress induced by H2O2 [8]: prevent; sustained oxidative stress induced by H2O2 [9]: prevent; reactive oxygen species (ROS) in the mitochondria [10]: reduces
(L-Phe)(L-Orn)(L-Dmt)(D-Orn)-NH2 [Peptide I-13]									Other			> 100	> 100		Reserve Capacity MEC ([5]; listed as I-13 (1)): 13.4 µM; Reserve Capacity ↑↓ ([5]; listed as I-13 (1)): ↑; AC50 ([5]; listed as I-13 (1), read-out: Reserve Capacity AC50): 81.9 µM; Reserve Capacity MEC ([5]; listed as I-13 (2)): 0.167 µM; Reserve Capacity ↑↓ ([5]; listed as I-13 (2)): ↓; AC50 ([5]; listed as I-13 (2), read-out: Reserve Capacity AC50): 4.72 µM
(D-Arg)(L-Leu)(L-Orn)(L-Phe)-NH2 [Peptide I-23]									Other	65.9	↑	> 100	> 100	> 100	
(L-Leu)(L-Orn)(L-Leu)(D-Orn)-NH2 [Peptide I-32]									Other	0.277	↓	> 100	> 100	9.32	

Source: patent US10870678B2, “Chiral peptides” (ARCUATE THERAPEUTICS, INC., priority 2016, dated 2020)
